Experimental data as given in the supplement of paper PMC10883282.

Key:
Experiment in all cases: relative viability vs DMSO control (72 h) (fraction); higher = more viable cells
[1] = system: G401
Outline: (§1)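 Sarcoma cell lines were grown in 384-well plates seeded toward 80–90% confluence and exposed 24 h later to serially diluted compound. After 72 h at 37 °C and 5% CO2, with 0.1% DMSO vehicle and a 5 µM positive control on the plates, ATPLite was read. Relative viability, given as percent growth averaged over up to triplicate wells, was rescaled so that 1 is full and 0 is none.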

[2] = system: SW872
Outline: as §1

[3] = system: HT1080
Outline: as §1

[4] = system: HS729
Outline: as §1

[5] = system: RD-ES
Outline: as §1

[6] = system: SK-ES-1
Outline: as §1

[7] = system: SW982
Outline: as §1

[8] = system: KHOS-NP
Outline: as §1

[9] = system: SW684
Outline: as §1

[10] = system: VA-ES-BJ
Outline: as §1

[11] = system: SK-LMS-1
Outline: as §1

[12] = system: A204
Outline: as §1

CCCS(=O)(=O)N[C@H]1C[C@@H](N(C)c2ncnc3[nH]ccc23)C1 [Abrocitinib]
Details | relative viability
[1], 0.00017 µM | 1
[1], 0.00051 µM | 0.981
[1], 0.00152 µM | 0.994
[1], 0.00457 µM | 1.04
[1], 0.01372 µM | 1.01
[1], 0.04115 µM | 0.981
[1], 0.1235 µM | 0.984
[1], 0.3704 µM | 1.01
[1], 1.111 µM | 1.01
[1], 3.333 µM | 0.956
[1], 10 µM | 0.915
[2], 0.00017 µM | 0.993
[2], 0.00051 µM | 0.995
[2], 0.00152 µM | 0.991
[2], 0.00457 µM | 1
[2], 0.01372 µM | 1.01
[2], 0.04115 µM | 1.03
[2], 0.1235 µM | 1.02
[2], 0.3704 µM | 1.02
[2], 1.111 µM | 1.03
[2], 3.333 µM | 1.01
[2], 10 µM | 1
[3], 0.00017 µM | 1.026
[3], 0.00051 µM | 1.02
[3], 0.00152 µM | 1.046
[3], 0.00457 µM | 1.022
[3], 0.01372 µM | 1.05
[3], 0.04115 µM | 1.05
[3], 0.1235 µM | 1.026
[3], 0.3704 µM | 1.04
[3], 1.111 µM | 1.021
[3], 3.333 µM | 1.03
[3], 10 µM | 1.05
[4], 0.00017 µM | 0.926
[4], 0.00051 µM | 0.935
[4], 0.00152 µM | 0.937
[4], 0.00457 µM | 0.951
[4], 0.01372 µM | 0.94
[4], 0.04115 µM | 0.95
[4], 0.1235 µM | 0.909
[4], 0.3704 µM | 0.91
[4], 1.111 µM | 0.941
[4], 3.333 µM | 0.8836
[4], 10 µM | 0.892
[5], 0.00017 µM | 0.988
[5], 0.00051 µM | 0.998
[5], 0.00152 µM | 0.985
[5], 0.00457 µM | 0.993
[5], 0.01372 µM | 1.02
[5], 0.04115 µM | 1.03
[5], 0.1235 µM | 1.03
[5], 0.3704 µM | 1.015
[5], 1.111 µM | 1.03
[5], 3.333 µM | 1.03
[5], 10 µM | 1.03
[6], 0.00017 µM | 1.03
[6], 0.00051 µM | 1.06
[6], 0.00152 µM | 1.04
[6], 0.00457 µM | 1.03
[6], 0.01372 µM | 1.03
[6], 0.04115 µM | 1.02
[6], 0.1235 µM | 1.03
[6], 0.3704 µM | 1.03
[6], 1.111 µM | 1.02
[6], 3.333 µM | 1.03
[6], 10 µM | 1
[7], 0.00017 µM | 1.03
[7], 0.00051 µM | 1.04
[7], 0.00152 µM | 1.04
[7], 0.00457 µM | 1.04
[7], 0.01372 µM | 1.02
[7], 0.04115 µM | 1.06
[7], 0.1235 µM | 1.07
[7], 0.3704 µM | 1.044
[7], 1.111 µM | 1.04
[7], 3.333 µM | 1.056
[7], 10 µM | 1.06
[8], 0.00017 µM | 1.05
[8], 0.00051 µM | 1.04
[8], 0.00152 µM | 1.04
[8], 0.00457 µM | 1.05
[8], 0.01372 µM | 1.05
[8], 0.04115 µM | 1.04
[8], 0.1235 µM | 1.06
[8], 0.3704 µM | 1.04
[8], 1.111 µM | 1.05
[8], 3.333 µM | 1.04
[8], 10 µM | 1.039
[9], 0.00017 µM | 1.11
[9], 0.00051 µM | 1.12
[9], 0.00152 µM | 1.12
[9], 0.00457 µM | 1.15
[9], 0.01372 µM | 1.12
[9], 0.04115 µM | 1.13
[9], 0.1235 µM | 1.14
[9], 0.3704 µM | 1.16
[9], 1.111 µM | 1.11
[9], 3.333 µM | 1.09
[9], 10 µM | 1.08
[10], 0.00017 µM | 1.02
[10], 0.00051 µM | 1.02
[10], 0.00152 µM | 1
[10], 0.00457 µM | 1.03
[10], 0.01372 µM | 1.02
[10], 0.04115 µM | 1.05
[10], 0.1235 µM | 1.03
[10], 0.3704 µM | 1.05
[10], 1.111 µM | 1.06
[10], 3.333 µM | 1.03
[10], 10 µM | 1.01
[11], 0.00017 µM | 1
[11], 0.00051 µM | 1.03
[11], 0.00152 µM | 1.01
[11], 0.00457 µM | 1.02
[11], 0.01372 µM | 1.04
[11], 0.04115 µM | 1.04
[11], 0.1235 µM | 0.992
[11], 0.3704 µM | 1.01
[11], 1.111 µM | 1.01
[11], 3.333 µM | 1.02
[11], 10 µM | 1.02
[12], 0.00017 µM | 1.07
[12], 0.00051 µM | 1.06
[12], 0.00152 µM | 1.07
[12], 0.00457 µM | 1.06
[12], 0.01372 µM | 1.07
[12], 0.04115 µM | 1.07
[12], 0.1235 µM | 1.07
[12], 0.3704 µM | 1.07
[12], 1.111 µM | 1.03
[12], 3.333 µM | 1.01
[12], 10 µM | 0.949
